From patent publication US20090081669A1 (ENCODE BIO, INC., priority 2006, published 2009)

Experiments:
yeast strain MaV203 = test: Rescue of GAL4 (TAG) expression by DANSYL-O-RS/O-tRNA pair, growth in the absence of uracil; format: cell-based; settings: MaV203 with DANSYL-O-RS, suppressor O-tRNA and GAL4 TAG
Description: The yeast strain MaV203 was transfected with plasmids coding for the DANSYL-O-RS (SEQ ID NO:12, derived from E. coli), suppressor O-tRNA (SEQ ID NO:5 derived from E. coli) and a marker gene, GAL4, containing nonsense TAG codons. Yeast harboring a functional DANSYL-RSOR and suppressor tRNA OR will “rescue” expression of GAL4. The MAV203 yeast strain contains the URA3 gene (required for uracil biosynthesis) under control of the GAL4 promoter. When grown in the absence of uracil, MAV203 yeast will not grow unless “rescue” of GAL4 expression occurs.

CAT-TAG in CHO cells = test: CAT-TAG expression in transfected CHO cells (FAST CAT assay); format: cell-based; settings: cells with O-RS/O-tRNA and CAT-TAG, grown in the presence of dansyl-alanine
Description: We first redesigned the suppressor O-tRNA gene to make it suitable for expression in mammalian cells by altering the 5′ UTR, mutating the promoter regions and generating a tandem repeat, thereby forming SEQ ID NO:6, and subcloned the O-RS gene (SEQ ID NO:12) into a mammalian expression vector. We transformed CHO cells with the plasmids encoding the modified O-RS/O-tRNA genes and a marker gene, Chloramphenicol Acetyltransferase (“CAT”), containing a nonsense TAG codon (“CAT-TAG”). Expression of CAT-TAG was assessed using a fluorescent-based assay (FAST CAT, Invitrogen, Inc.) that measures the conversion of chloramphenicol-BODIPY (FL-CM) to 3-acetyl-chloramphenicol-BODIPY (FL-AcCM) by thin layer chromatography. […] As a positive control, cells were transfected with wildtype CAT cDNA.

CN(C)c1cccc2c(S(=O)(=O)NC[C@H](N)C(=O)O)cccc12
growth of transformed yeast in the absence of uracil (yeast strain MaV203): Growth was only observed when the transformed yeast were grown in the presence of dansyl-alanine
CAT activity of transfected CHO cells (CAT-TAG in CHO cells): expressed significant CAT activity
